Assay results from US5981517A, “Androstene derivatives” (priority 1997, dated 1999).

Key:
[1] = test system: forearm of a human volunteer; assay: Further human vasoconstriction testing, Method 2; assay type: in vivo; set-up: key: +: "positive" (pallor could be observed); -: "negative" (pallor could not be detected)
Protocol: The mixtures, in 20 μL amounts, were applied to circular patches (1/4 inch diameter). The patches were applied to the forearm of a human volunteer, and covered with a water impervious film for 3 hr. Vasoconstriction activity was judged by the appearance of pallor at various time points after the patches were removed. Tests were performed on the same person and the results were obtained from 2-4 observations.
In TABLE XIV above, "-" means a negative result was obtained. In other tables herein, "-" means not tested.
In TABLE XIV above, the results of a simpler method of judging vasoconstriction activity was used in which only "positive" (pallor could be observed) or "negative" (pallor could not be detected) results were recorded.

[2] = physchem; assay type: physicochemical
Protocol: (§1) A Whatman C-18 column (4.6 mm×108 mm) was connected to a Spectra-Physics component system consisting of a SP 8810 precision isocratic pump, Rheodyne 7125 injector (20 μL injection volume), SP 8450 UV/VIS variable wavelength detector (230 nm), and SP 4290 integrator. The system was operated at ambient temperature. The mobile phase consisted of acetonitrile, acetic acid and water (60:0.1:40). At a flow rate of 1.0 mL/minute, the retention times for the test compounds were 4.74 minutes for Compound A, 5.84 minutes for Compound B, 6.93 minutes for Compound C, and 5.72 minutes for Compound D.
(§2) HPLC peak area and peak height were used as a measure of the concentration of the test compounds and plotted against time to evaluate the disappearance rates of the compounds. The stability was determined by measuring the pseudo-first order rate constant (kobs in min^-1) or half-life (t1/2 in min) of disappearance of the test compound in buffer. […].
The stabilities of test compounds A, B, C, and D, were tested in buffer solutions in the pH range of 4.0 to 9.0. A 0.1 mL portion of each compound at a concentration of 1 mM was mixed with 10 mL phosphate buffer (made by combining 0.05 M of NaH2 PO4 and 0.05 M of Na2 HPO4 with 0.05 M of NaCl) to give a final concentration of 0.01 mM. The mixtures were incubated at 37° C., and samples were taken and injected in the HPLC system at appropriate time intervals. pH profiles of each test compound are shown in TABLE III below. […]

[3] = Stability in rat blood; assay type: in vitro ADME; details: rat, blood
Protocol: as §1, §2
(§3) A 0.2 mL aliquot of stock solution (1 mM) of each of the test compounds A, B, C, and D, was added to 2 mL of each biological media (whole heparinized rat blood, 20% rat liver homogenate, and 6-volume diluted lung homogenate in isotonic buffer of pH 7.40 made by combining 0.05 M of Na2 HPO4 and 0.05 M of NaH2 PO4 with 0.05 M of NaCl), which was kept in a 37° C. water bath, to obtain a final concentration of 0.1 mM in each biological medium. Samples of 0.1 mL were taken at appropriate time intervals for 2 hours (at 0, 3, 5, 10, 20, 40, 60, 90 and 120 minutes) and mixed with 0.2 mL of acetonitrile containing 5% DMSO. Each mixture was centrifuged and the supernatant was injected in the HPLC.

[4] = Stability in liver homogenate; assay type: in vitro ADME, rat; details: rat, liver homogenate
Protocol: as §1, §2, §3

[5] = Stability in lung homogenate; assay type: in vitro ADME; details: rat, lung homogenate
Protocol: as §1, §2, §3

[6] = test system: forearm of a human volunteer; assay: Human vasoconstriction test; assay type: in vivo; set-up: key: 0 = normal skin, 4 = very intense pallor; details: 10 mM
Protocol: Test compounds (10 mM) were dissolved in ethanol/propylene glycol (9/1) solution, and 50 μL of the mixtures were applied to circular patches, 8 mm in diameter. After ethanol evaporation, the patches were applied to the forearm of a human volunteer, and covered with a water impervious film for 3 hours. The intensity of vasoconstriction was judged 1, 8, 17 and 24 hours after the patches were removed.
The grading scale for the vasoconstriction activity was as follows: 0, normal skin; 1, slight pallor of indistinct outline; 2, pallor with at least two corners outlined; 3, even pallor with a clear outline of the application sites; 4, very intense pallor.

[7] = Stability in human plasma; assay type: in vitro ADME; details: human, plasma
Protocol: (§4) A Waters NOVA-PAK phenyl column was connected to a Spectra-Physics component system consisting of a SP 8810 precision isocratic pump, a Rheodyne 7125 injector (injection volume 20 μL), an SP 8450 UV/VIS variable wavelength detector (operated at 254 nm) and a SP 4270 integrator. […]. The retention times of compound of the invention J and its metabolities L and M were 8.64, 2.70 and 2.45 minutes, respectively. The retention times of compound of the invention I and its metabolites N and 0 were 5.84, 2.70 and 1.81 minutes, respectively. The retention time of cortienic acid was 1.00 minute.
(§5) Freshly collected human or rat plasma was used. An aliquot of 10 mM test compound in ethanol solution was added to prewarmed (37° C.) plasma to yield a final concentration of 100 μM. At appropriate time intervals, samples (0.1 mL) were removed and mixed with 0.2 mL of 5% dimethylsulfoxide/acetonitrile solution. Mixtures were centrifuged and supernatants were analyzed by HPLC. The pseudo-first order rate constant of the disappearance of compound in the biological media was determined by linear regression analysis from the plot of log peak area and peak height versus time.
(§6) Stability was evaluated by the pseudo first-order rate constant (k, hr^-1) and half-life (t1/2, hr) of the disappearance of the test compound in the media.

[8] = Stability in rat plasma; assay type: in vitro ADME; details: rat, plasma
Protocol: as §4, §5, §6

[9] = aqueous phosphate buffer, pH 4.5
[10] = aqueous phosphate buffer, pH 6.56
[11] = aqueous phosphate buffer, pH 7.4
[12] = aqueous phosphate buffer, pH 8.08

Row | SMILES | Vasoconstriction activity ([1]; 4 Hours, 0.01 mM) | Vasoconstriction activity ([1]; 4 Hours, 0.05 mM) | Vasoconstriction activity ([1]; 4 Hours, 0.1 mM) | Vasoconstriction activity ([1]; 4 Hours, 0.5 mM) | Vasoconstriction activity ([1]; 4 Hours, 1 mM) | Vasoconstriction activity ([1]; 4 Hours, 5 mM) | Vasoconstriction activity ([1]; 8 Hours, 0.01 mM) | Vasoconstriction activity ([1]; 8 Hours, 0.05 mM) | Vasoconstriction activity ([1]; 8 Hours, 0.1 mM) | Vasoconstriction activity ([1]; 8 Hours, 0.5 mM) | Vasoconstriction activity ([1]; 8 Hours, 1 mM) | Vasoconstriction activity ([1]; 8 Hours, 5 mM) | Vasoconstriction activity ([1]; 10-22 hours, 0.01 mM) | Vasoconstriction activity ([1]; 10-22 hours, 0.05 mM) | Vasoconstriction activity ([1]; 10-22 hours, 0.1 mM) | Vasoconstriction activity ([1]; 10-22 hours, 0.5 mM) | Vasoconstriction activity ([1]; 10-22 hours, 1 mM) | Vasoconstriction activity ([1]; 10-22 hours, 5 mM) | Vasoconstriction activity ([1]; 24 Hours, 0.01 mM) | Vasoconstriction activity ([1]; 24 Hours, 0.05 mM) | also measured
1 | CCCCC(=O)O[C@]1(C(=O)CO)[C@@H](C)C[C@H]2[C@@H]3CCC4=CC(=O)C=C[C@]4(C)[C@@]3(F)[C@@H](O)C[C@@]21C [Betamethasone 17-valerate, reference compound] | - | - | - | - | + | + | - | - | - | + | + | + | - | - | - | + | + | + | - | - | Vasoconstriction activity ([1]; 24 Hours, 0.1 mM): -; Vasoconstriction activity ([1]; 24 Hours, 0.5 mM): -; Vasoconstriction activity ([1]; 24 Hours, 1 mM): +; Vasoconstriction activity ([1]; 24 Hours, 5 mM): +
2 | COC(=O)[C@@]1(OC(=O)C(Cl)Cl)CC[C@H]2[C@@H]3CCC4=CC(=O)C=C[C@]4(C)[C@H]3[C@@H](O)C[C@@]21C [Compound A, Methyl 17α-dichloroacetoxy-11β-hydroxyandrosta-1,4-dien-3-one-17β-carboxylate] |  |  |  |  |  |  |  |  |  |  |  |  |  |  |  |  |  |  |  |  | half-life [2, 9]: > 48 h; half-life [2, 10]: 19.1 h; half-life [2, 11]: 3.37 h; half-life [2, 12]: 0.35 h; half-life ([2]; aqueous phosphate buffer, pH 9): 0.0708 h; half-life ([2]; buffer, pH 7.4): 3.37 h; half-life at 100 µM [3]: 0.448 h; half-life at 100 µM [4]: 0.0617 h; half-life at 100 µM [5]: 0.718 h; Vasoconstriction activity ([6]; 1 hour after patch removal): 2; Vasoconstriction activity ([6]; 8 hours after patch removal): 4; Vasoconstriction activity ([6]; 17 hours after patch removal): 4; Vasoconstriction activity ([6]; 24 hours after patch removal): 4
3 | CC(C)OC(=O)[C@@]1(OC(=O)C(Cl)Cl)CC[C@H]2[C@@H]3CCC4=CC(=O)C=C[C@]4(C)[C@H]3[C@@H](O)C[C@@]21C [Compound C, Isopropyl 17α-dichloroacetoxy-11β-hydroxyandrosta-1,4-dien-3-one-17β-carboxylate] |  |  |  |  |  |  |  |  |  |  |  |  |  |  |  |  |  |  |  |  | half-life [2, 9]: > 48 h; half-life [2, 10]: 11.3 h; half-life [2, 11]: 16.2 h; half-life [2, 12]: 2.08 h; half-life ([2]; aqueous phosphate buffer, pH 9): 0.27 h; half-life ([2]; buffer, pH 7.4): 11 h; half-life at 100 µM [3]: 1.78 h; half-life at 100 µM [4]: 0.488 h; half-life at 100 µM [5]: 2.84 h; Vasoconstriction activity ([6]; 1 hour after patch removal): 3; Vasoconstriction activity ([6]; 8 hours after patch removal): 4; Vasoconstriction activity ([6]; 17 hours after patch removal): 3; Vasoconstriction activity ([6]; 24 hours after patch removal): 2
4 | C[C@]12C=CC(=O)C=C1CC[C@@H]1[C@@H]2[C@@H](O)C[C@@]2(C)[C@H]1CC[C@]2(OC(=O)C(Cl)Cl)C(=O)OCCl [Compound D, Chloromethyl 17α-dichloroacetoxy-11β-hydroxyandrosta-1,4-dien-3-one-17β-carboxylate] |  |  |  |  |  |  |  |  |  |  |  |  |  |  |  |  |  |  |  |  | half-life [2, 9]: 14 h; half-life [2, 10]: 0.822 h; half-life [2, 11]: 0.232 h; half-life [2, 12]: 0.0483 h; half-life ([2]; aqueous phosphate buffer, pH 9): 0.0178 h; half-life ([2]; buffer, pH 7.4): 0.232 h; half-life at 100 µM [3]: 0.193 h; half-life at 100 µM [4]: 0.127 h; half-life at 100 µM [5]: 0.873 h; Vasoconstriction activity ([6]; 1 hour after patch removal): 3; Vasoconstriction activity ([6]; 8 hours after patch removal): 4; Vasoconstriction activity ([6]; 17 hours after patch removal): 3; Vasoconstriction activity ([6]; 24 hours after patch removal): 2
5 | COC(=O)[C@@]1(OC(=O)C(Cl)Cl)[C@H](C)C[C@H]2[C@@H]3CCC4=CC(=O)C=C[C@]4(C)[C@@]3(F)[C@@H](O)C[C@@]21C [Compound I, methyl 17α-dichloroacetoxy-9α-fluoro-11β-hydroxy-16α-methylandrosta-1,4-dien-3-one-17β-carboxylate] | - | - | + | + | + | + | - | + | + | + | + | + | - | - | + | + | + | + | - | - | half-life at 100 µM [7]: 10.9 h; half-life at 100 µM [8]: 9.88 h; Vasoconstriction activity ([1]; 24 Hours, 0.1 mM): +; Vasoconstriction activity ([1]; 24 Hours, 0.5 mM): +; Vasoconstriction activity ([1]; 24 Hours, 1 mM): +; Vasoconstriction activity ([1]; 24 Hours, 5 mM): +
6 | CCOC(=O)[C@@]1(OC(=O)C(Cl)Cl)[C@H](C)C[C@H]2[C@@H]3CCC4=CC(=O)C=C[C@]4(C)[C@@]3(F)[C@@H](O)C[C@@]21C [J, ethyl 17α-dichloroacetoxy-9α-fluoro-11β-hydroxy-16α-methylandrosta-1,4-dien-3-one-17β-carboxylate] | - | - | - | - | + | + | - | - | - | + | + | + | - | - | - | + | + | + | - | - | half-life at 100 µM [7]: 40.1 h; half-life at 100 µM [8]: 40.7 h; Vasoconstriction activity ([1]; 24 Hours, 0.1 mM): -; Vasoconstriction activity ([1]; 24 Hours, 0.5 mM): +; Vasoconstriction activity ([1]; 24 Hours, 1 mM): +; Vasoconstriction activity ([1]; 24 Hours, 5 mM): +
